Measurements from PMC10508484, “Development and application of a PBPK modeling strategy to support antimalarial drug development” (CPT: Pharmacometrics & Systems Pharmacology, 2023).
Where “and” joins values, the source holds several entries; their conditions need not be identical. Equal entries are not always repeated. Where two headings read alike, the source gives them in different places.

Columns and labels:
[1] = PBPK simulation of drug-drug interactions (Simcyp V19); set-up: species or system human; conditions: ratio of simulated to clinically observed AUC ratio; DDI of the respective line of Table S3
Source text: Here, we provide three example applications where the available PBPK models were used to address questions relating to DDI assessment. […] Additional simulation methods are provided in Appendix S1.
All simulations, including the ones performed for the applications, were run using Version 19 of the Simcyp population-based PBPK simulator (Simcyp (Certara), Sheffield, UK) and unless stated otherwise, input parameters for all drugs are as specified (Supplementary Information Table S1). All simulations were run using ten virtual trials that were matched as closely as possible to the clinical study volunteers in terms of the number of subjects, their age, the proportion of males/females and according to the same study design.

[2] = system: CYP2B6; test: Metabolism by CYP2B6 (CLint, Vmax, Km, fm); format: in vitro ADME, human; conditions: fraction metabolised used in the PBPK model (artemether: without induction)
Source text: (§1) In nearly all cases the fraction of systemic elimination metabolised by a given enzyme (fm) determined in vitro was unavailable in the literature.

[3] = biological target: T1, CYP3A4 (Homo sapiens, UniProt P08684)
Source text: as §1

[4] = PBPK input, cited from earlier work
[5] = biological target: T1, CYP3A4; conditions: cited from earlier work
[6] = In vitro flags for victim and perpetrator properties conferring DDI liability; format: in vitro ADME, human; conditions: in vitro flag, mainly based on in vitro determinations
[7] = cited from earlier work; for Cmax: read-out: Cmax Obs
[8] = system: CYP2B6; set-up: method as in Honda et al., 2011 12; conditions: ref Honda et al., 2011 12; cited from earlier work
[9] = cited from earlier work
[10] = 2020 1, cited from earlier work
[11] = system: Caco-2 cells; conditions: cited from earlier work
[12] = PBPK input; ref Charman et al., 2020 1; cited from earlier work
[13] = ref Charman et al., 2020 1; cited from earlier work
[14] = cited from earlier work; for CL IV: clinically observed, ref atovaquone Lavelle et al., 1994 17, chloroquine Walker et al., 1987 29, Gustafsson et al., 1983 30, doxycycline Raghuram et al., 1982 48, Nguyen et al., 1989 49, primaquine Mihaly et al., 1985 26, quinine White et al., 1983 77, Paintaud et al., 1993 78
[15] = system: CYP2C9; conditions: ref mefloquine Karbwang et al., 1988 58; tafenoquine Charman et al., 2020 1; cited from earlier work
[16] = system: CYP1A2; conditions: read-out: CYP1A2 IC50; ref Charman et al., 2020 1; cited from earlier work
[17] = Fraction unbound in human liver microsomes (fumic); conditions: extrapolated from value measured at 0.4 mg/mL to 0.1 mg/mL, method of Austin et al., 2002
[18] = 80 mg BID (Day 22-24) + rifampicin 600 mg QD (Days 1-24), HIV-infected, ref Lamorde et al., 2013 3
[19] = 80 mg BID (Days 13-15) + efavirenz 600 mg QD (Days 1-16), ref Huang et al., 2012 4
[20] = 80 mg SD (Day 1) + ketoconazole 400 mg SD (Day 1), 200 mg QD (Days 2-5), ref Lefevre et al., 2002 2
[21] = calibrated against propranolol, plasma as medium for atovaquone and piperaquine, ref Charman et al., 2020 1

T1 sequence (P08684 whole entry): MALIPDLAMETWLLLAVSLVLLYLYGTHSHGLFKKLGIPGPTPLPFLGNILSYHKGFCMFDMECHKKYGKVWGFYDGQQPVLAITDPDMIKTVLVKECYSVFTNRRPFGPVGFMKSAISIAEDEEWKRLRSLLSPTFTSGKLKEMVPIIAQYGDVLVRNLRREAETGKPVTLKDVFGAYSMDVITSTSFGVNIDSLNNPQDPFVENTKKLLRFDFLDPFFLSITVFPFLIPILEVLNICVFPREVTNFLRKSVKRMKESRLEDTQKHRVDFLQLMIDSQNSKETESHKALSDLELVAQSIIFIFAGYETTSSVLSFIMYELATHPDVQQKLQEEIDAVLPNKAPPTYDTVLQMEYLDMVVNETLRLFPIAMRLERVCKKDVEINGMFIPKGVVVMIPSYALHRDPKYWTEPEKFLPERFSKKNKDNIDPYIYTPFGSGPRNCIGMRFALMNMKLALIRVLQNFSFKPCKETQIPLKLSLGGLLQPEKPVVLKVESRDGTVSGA

Question: What does the source list for `CO[C@H]1O[C@@H]2O[C@@]3(C)CC[C@H]4[C@H](C)CC[C@@H]([C@H]1C)[C@@]24OO3` [Artemether, artemether]?
Answer: AUC ratios Sim/Obs [1]: 1.00 and 1.08 and 1.15; fmCYP2B6 [2]: 47%; fmCYP3A4 [3]: 53%; fu ([4]; ref Charman et al., 2020 1): 0.038; CYP3A4 Vmax reported [5]: 12.3 pmol/min/pmol; Km [5]: 8.24 µM; Risk as a perpetrator [6]: CYP2B6 inducer; Risk as a victim [6]: Substrate of CYP2B6 and CYP3A4; AUC Obs ([7]; 80 mg BID (Day 3 PM), 60-72 h, ref Huang et al., 2012 8): 59.5 ng·h/mL; AUC Obs ([7]; 80 mg BID (Day 3 PM), 62-72 h, ref Lefevre et al., 2002 7): 61.4 ng·h/mL; Cmax Obs ([7]; 80 mg BID (Day 3 PM), ref Huang et al., 2012 8): 21.2 ng/mL; Cmax Obs ([7]; 80 mg BID (Day 3 PM), ref Lefevre et al., 2002 7): 30.8 ng/mL; AUC Obs ([7]; 80 mg SD, Indian, 0-inf, ref Lefevre et al., 2013 6): 408 ng·h/mL; Cmax Obs ([7]; 80 mg SD, Indian, ref Lefevre et al., 2013 6): 113 ng/mL; AUC Obs ([7]; 80 mg SD, 0-inf, ref Lefevre et al., 2002 5): 320 ng·h/mL; Cmax Obs ([7]; 80 mg SD, ref Lefevre et al., 2002 5): 104 ng/mL; CYP2B6 Vmax reported [8]: 17.9 pmol/min/pmol; Km [8]: 1950 nM; AUC ratio Obs [9, 18]: 0.11; Cmax ratio Obs [9, 18]: 0.18; AUC ratio Obs [9, 19]: 0.49; Cmax ratio Obs [9, 19]: 0.79; AUC ratio Obs [9, 20]: 2.51; Cmax ratio Obs [9, 20]: 2.24; B:P ([10]; PBPK input, ref artemether Colussi et al., 1999 11, atovaquone Rolan et al., 1997 14, Beerahee, 1999 16, Charman et al., azithromycin Pene Dumitrescu et al., 2013 21, DEAQ Winstanley et al., 1987 9, proguanil weighted mean Helsby et al., 1993 61, Wattanagoon et al., 1987 63): 0.8; Caco-2 (Papp A-B) [11, 21]: 42.7 10-6 cm/s; Log P [12]: 3.7

Question: For `O=C1C(O)=C([C@H]2CC[C@H](c3ccc(Cl)cc3)CC2)C(=O)c2ccccc21` [Atovaquone, atovaquone], which fu ([4]; ref atovaquone Mepron Prescribing Information, 2008, Nixon et al., 2013 13, Rolan et al., 1997 14, azithromycin Foulds et al., 1990 20, chloroquine Ofori-Adjei et al., 1986 27, Walker et al., 1983 28, DHA Batty et al., 2004 41 (healthy volunteers), lumefantrine CDER submission 22-269, proguanil Wattanagoon et al., 1987 63, tafenoquine Dow et al., 2020 84) is on record?
Answer: 0.001

Question: And the “Risk as a perpetrator” value [6]?
Answer: BCRP inhibitor

Question: And the “Risk as a victim” value [6]?
Answer: Cleared by biliary excretion

Question: And the “AUC Obs” value ([7]; 250 mg QD, 0-24 h, ref Thapar et al., 2002 10)?
Answer: 254 µM·h

Question: And the “AUC Obs” value ([7]; 250 mg SD, 0-inf, ref Thapar et al., 2002 10)?
Answer: 295 µM·h

Question: What about the “AUC Obs” value ([7]; 500 mg SD, AUC window Unknown, ref Rolan et al., 1994 9) of the same molecule?
Answer: 288000 ng·h/mL

Question: And the “Cmax Obs” value ([7]; 500 mg SD, ref Rolan et al., 1994 9)?
Answer: 4400 ng/mL

Question: What about the Cmax ([7]; 250 mg QD, ref Thapar et al., 2002 10) of the same molecule?
Answer: 13.8 µM

Question: What about the Cmax ([7]; 250 mg SD, ref Thapar et al., 2002 10) of the same molecule?
Answer: 3.7 µM

Question: And the “pKa(s)” value [13]?
Answer: 4.28

Question: What about the “Caco-2 (Papp A-B)” value [11, 21] of the same molecule?
Answer: 300 10-6 cm/s

Question: And the “CL IV” value [14]?
Answer: 0.62 L/h

Question: What about the CL renal ([14]; in vivo) of the same molecule?
Answer: 0 L/h

Question: What about the “fe (fraction excreted unchanged in urine)” value ([14]; in vivo) of the same molecule?
Answer: < 0.6%

Question: With `OC(c1cc(C(F)(F)F)nc2c(C(F)(F)F)cccc12)C1CCCCN1` (stereo not drawn) [Mefloquine, mefloquine] as the molecule, how does the fmCYP3A4 [3] read?
Answer: 95%

Question: What about the “CLint CYP3A4” value ([3]; microsomes) of the same molecule?
Answer: 0.168 µL/min/pmol

Question: What about the “Risk as a victim” value [6] of the same molecule?
Answer: Substrate of CYP3A4

Question: And the “AUC Obs” value ([7]; in vivo, 250 mg)?
Answer: 116000 ng·h/mL

Question: And the “Cmax Obs” value ([7]; in vivo, 250 mg)?
Answer: 310 ng/mL

Question: What about the “AUC Obs” value ([7]; in vivo, 750 mg) of the same molecule?
Answer: 393500 ng·h/mL

Question: What about the “AUC Obs” value ([7]; in vivo, 1000 mg) of the same molecule?
Answer: 516000 ng·h/mL

Question: What about the “Cmax Obs” value ([7]; in vivo, 1000 mg) of the same molecule?
Answer: 960 ng/mL

Question: What about the “Cmax Obs” value ([7]; in vivo, 1500 mg) of the same molecule?
Answer: 1440 ng/mL

Question: What about the Ki [15] of the same molecule?
Answer: 260 µM

Question: And the “Caco-2 (Papp A-B)” value ([11]; Caco-2)?
Answer: 66 10-6 cm/s

Question: What about the “CL PO” value ([14]; in vivo, po) of the same molecule?
Answer: 2.09 L/h

Question: And the CL renal ([14]; in vivo)?
Answer: 0.07 L/h

Question: What does the source list for `COc1cc(NC(C)CCCN)c2ncccc2c1` (stereo not drawn) [Primaquine, primaquine]?
Answer: IC50 [16]: < 250 nM; fu ([4]; ref Charman et al., 2020 1): 0.26; Risk as a perpetrator [6]: CYP1A2 inhibitor; Risk as a victim [6]: Substrate of MAO and CYP2D6; AUC Obs ([7]; 15 mg QD (Day 14), 0-inf, ref Ward et al., 1985 14): 443 ng·h/mL; Cmax Obs ([7]; 15 mg QD (Day 14), ref Ward et al., 1985 14): 66 ng/mL; AUC Obs ([7]; 15 mg SD, 0-inf, ref Mihaly et al., 1985 12): 500 ng·h/mL; AUC Obs ([7]; 15 mg SD, 0-inf, ref Ward et al., 1985 14): 468 ng·h/mL; Cmax Obs ([7]; 15 mg SD, ref Mihaly et al., 1985 12): 53 ng/mL; Cmax Obs ([7]; 15 mg SD, ref Ward et al., 1985 14): 65 ng/mL; AUC Obs ([7]; 30 mg SD, 0-inf, ref Hanboonkunupakarn et al., 2014 13): 1130 ng·h/mL; AUC Obs ([7]; 30 mg SD, 0-inf, ref Jittamala et al., 2015 15): 1180 ng·h/mL; Cmax Obs ([7]; 30 mg SD, ref Hanboonkunupakarn et al., 2014 13): 128 ng/mL; Cmax Obs ([7]; 30 mg SD, ref Jittamala et al., 2015 15): 139 ng/mL; AUC Obs ([7]; 45 mg SD, 0-inf, ref Mihaly et al., 1985 12): 1700 ng·h/mL; Cmax Obs ([7]; 45 mg SD, ref Mihaly et al., 1985 12): 176 ng/mL; fumic [17]: 0.84; B:P ([10]; ref Charman et al.): 0.82; Caco-2 (Papp A-B) [11, 21]: 29 10-6 cm/s; CL IV [14]: 24.2 L/h; fe (fraction excreted unchanged in urine) ([14]; ref atovaquone Rolan et al., 1997 14, mefloquine Schwartz et al., 1982 57, primaquine White, 1985 62, proguanil (extensive metabolisers) Jeppesen et al., 1997 34, pyronaridine Wattanavijitkul, 2010 74, sulfadoxine assumed with Edstein, 1987 83): < 0.01%
